Results taken from patent publication US5424314A, “20,21-dinoreburnamenines” (Roussel-Uclaf, priority 1990, dated 1995).
Counter-ions that a name gives are not always drawn.

Tests used:
[1] = tested on: mice of CD1, Charles River type; experiment: Hypobaric anoxia: survival time of mice subjected to a lethal hypoxic atmosphere; type: in vivo; details: relative to vehicle control animals (70 to 80 seconds); male CD1 mice, depression of 620 mm Hg
Excerpt: The test consisted of measuring the survival time of mice subjected to a lethal hypoxic atmosphere in which male mice of CD1, Charles River type, weighing 20 to 25 grams, were placed individually in a 2 liter enclosure in which a depression of 620 mm Hg was brought about by means of a vacuum pump, according to the following kinetics: […]
______________________________________
The survival time was the time between the start of the depression (T0) and the last respiratory movement; it was on the order of 70 to 80 seconds on the control animals. The results are given as a percentage of the increase in the survival time relative to the control animals who received the vehicle.

mouse = experiment: Acute toxicity: lethal dose LD0 after oral administration to a mouse; type: in vivo
Experimental: The lethal doses LD0 of the different compounds tested were evaluated after oral administration to a mouse.

[2] = tested on: alpha 2 adrenergic receptors; experiment: Affinity for alpha 2 adrenergic receptors (H^3 rauwolscine displacement, cortex homogenate); type: binding, male rate (rat) brain cortices; details: H^3 rauwolscine 0.15 nM, 45 minutes at 25° C., pH 7.4; concentrations inhibiting 50% of specific fixation compared with phentolamine
Experimental: 2 Affinity for Alpha 2 Adrenergic Receptors
10 cortices removed from the brains of male rate weighing on average 150 g were homogenized in 90 ml of 0.32M sucrose. After centrifuging the homogenized mixture at 1,000 g for 10 minutes at 0° C., the supernatant was centrifuged at 30,000 g for 10 minutes at 0° C.+4° C. The deposit was suspended in 240 ml of 50 mM Tris HCl pH 7.7 buffer and centrifuged at 30,000 g for 15 minutes at 0° C.+4° C. The new deposit was suspended in 480 ml of 50 mM NaKPO4 pH 7.4 buffer. Then 2 ml of suspension were incubated for 45 minutes at 25° C. in the presence of H^3 rauwolscine it a concentration of 0.15 nM:
i) on its own, ii) with increasing concentrations of the product under test or, iii) to determine the non-specific fixation, with non-radioactive phentolamine at a concentration of 10^-5 M.
The incubated suspensions were filtered on Whatman GF/C and the filters were washed three times with 5 ml of NaKPO4 pH 7.4 buffer at 0° C. The radioactivity of the filters was measured by liquid scintillation. The affinity of the product tested for the alpha 2 adrenergic receptors was determined relative to phentolamine as reference product.
CD=concentration of phentolamine inhibiting 50% of the specific fixation of H^3 rauwolscine;
CX=concentration of the product tested inhibiting 50% of the specific fixation of H^3 rauwolscine. […]

| SMILES | % increase of survival time [1] | LD0 (maximum dose which did not cause any mortality in 8 days) (mouse) | RBA (relative affinity, relative to phentolamine as reference product) [2] |
| --- | --- | --- | --- |
| CC(=O)c1ccc2c3c4n(c2c1)C=CC1CCCN(CC3)C41 (racemic) [Example 4, [16α(±)]-11-acetyl-20,21-dinoreburnamenine acid maleate] | +22% | 100 | – |
| NC(=O)c1ccc2c3c4n(c2c1)C=CC1CCCN(CC3)C41 (racemic) [Example 10, [16α(±)]-20,21-dinoreburnamenine-11-carboxamide] | +22% | – | – |
| CC(O)c1ccc2c3c4n(c2c1)C=CC1CCCN(CC3)C41 (racemic) [Example 5] | +21% | 100 | – |
| C=Cc1ccc2c3c4n(c2c1)C=CC1CCCN(CC3)C41 (racemic) [Example 1, [16 α(±)]-11-ethenyl-20,21-dinoreburnamenine maleate] | – | ≥ 400 | 31 |
